# What was measured:
# [1] = tested on: mHypoA-POMC/GFP-2 cell line; experiment: Gene expression by qRT-PCR in mHypoA-POMC/GFP-2 hypothalamic cell line; format: cell-based, mouse; conditions: 100 μM BAP, 16 hr
# Protocol: Hypothalamic neurons from embryonic and adult mice were previously immortalized to generate the clonal cell lines mHypoE-46, mHypoE-44, mHypoE-41, mHypoE-38, mHypoA-59, a FAC-sorted POMC/GFP mouse-derived cell line, mHypoA-POMC/GFP-2, and a mixed culture mHypoA-Bmal1-WT/F cell line (6, 13, 14). The mHypoE-46, mHypoE-44, and mHypoA-Bmal1-WT/F lines were cultured in DMEM containing 1000 mg/L glucose supplemented with 5% FBS and 1% pen/strep. The mHypoE-41, mHypoE-38, and mHypoA-59 cell lines were cultured in DMEM containing 4500 mg/L glucose supplemented with 2% FBS and 1% pen/strep. The mHypoA-POMC/GFP-2 line was cultured in DMEM containing 1000 mg/L glucose supplemented with 2% FBS and 1% pen/strep. […] Neuropeptide gene expression levels were determined by qRT-PCR.
# For cell culture experiments, total RNA was isolated using PureLink RNA isolation kit (Thermofisher Scientific, Burlington, ON, Canada) according to the manufacturer's instruction with on column DNase step (PureLink DNAse kit) or DNase I treatment to remove genomic DNA. […] RNA quality and quantity were measured using Nanodrop 2000 and 500-1000 ng of complimentary DNA (cDNA) was synthesized with High Capacity cDNA Reverse Transcription kit (Applied biosystems, Thermofisher Scientific). […] Data was analyzed using […] and normalized to reference gene, either 60S ribosomal protein L7 (Rpl7) or Histone 3a (His).
# [2] = tested on: primary hypothalamic neurons; experiment: Feeding neuropeptide expression in primary hypothalamic culture (qRT-PCR); format: cell-based, CD-1 mice; conditions: 100 μM BAP, 16 hr, male- and female-derived cultures (both sexes)
# Protocol: (§1) For cell culture experiments, total RNA was isolated using PureLink RNA isolation kit (Thermofisher Scientific, Burlington, ON, Canada) according to the manufacturer's instruction with on column DNase step (PureLink DNAse kit) or DNase I treatment to remove genomic DNA. For mouse experiments, total RNA was isolated using mirVana PARIS RNA and native protein isolation kit (Thermofisher Scientific). RNA quality and quantity were measured using Nanodrop 2000 and 500-1000 ng of complimentary DNA (cDNA) was synthesized with High Capacity cDNA Reverse Transcription kit (Applied biosystems, Thermofisher Scientific). Quantitative reverse transcription polymerase chain reaction (RT-qPCR) was performed with 12.5 ng of cDNA amplified with Platinum SYBR green qPCR SuperMix-UDG with ROX on an Applied Biosystems Prism 7900HT or PowerTrack Green Master Mix on an Applied Biosystems QuantStudio 5 and gene specific primers as per manufacturer's instructions (Table 1). Data was analyzed using […] and normalized to reference gene, either 60S ribosomal protein L7 (Rpl7) or Histone 3a (His).
# Because the BAP was being fed to the mice, it is also important to determine what are the direct effects of BAP on native hypothalamic neurons, since the results may be due to an indirect effect from the periphery. Hypothalamus were extracted from male and female CD-1 mice fed a normal chow diet, and primary hypothalamic neurons were cultured from individual mice. The neurons were treated with 100 µM of BAP for 16 hr to assess the effect of BAP on feeding-related neuropeptide expression.
# mHypoE-44 cell line = experiment: Gene expression by qRT-PCR in mHypoE-44 hypothalamic cell line; format: cell-based, mouse; conditions: for effect of PKA inhibition on BAP effect on Npy expression: n=2
# Protocol: (§2) Hypothalamic neurons from embryonic and adult mice were previously immortalized to generate the clonal cell lines mHypoE-46, mHypoE-44, mHypoE-41, mHypoE-38, mHypoA-59, a FAC-sorted POMC/GFP mouse-derived cell line, mHypoA-POMC/GFP-2, and a mixed culture mHypoA-Bmal1-WT/F cell line (6, 13, 14). The mHypoE-46, mHypoE-44, and mHypoA-Bmal1-WT/F lines were cultured in DMEM containing 1000 mg/L glucose supplemented with 5% FBS and 1% pen/strep. The mHypoE-41, mHypoE-38, and mHypoA-59 cell lines were cultured in DMEM containing 4500 mg/L glucose supplemented with 2% FBS and 1% pen/strep. The mHypoA-POMC/GFP-2 line was cultured in DMEM containing 1000 mg/L glucose supplemented with 2% FBS and 1% pen/strep. All cells were maintained in 5% CO2 at 37° C. BAP was initially dissolved in DMSO solvent (vehicle control) to achieve 1000x the intended dose. The BAP solution was then diluted 1:1000 with the growth media used for the cell line. For co-treatment experiments, the vehicle control for ATP, UDP, and PKI was water, and for the H89 PKA inhibitor was DMSO. Neuropeptide gene expression levels were determined by qRT-PCR.
# as §1
# mHypoA-59 cell line = experiment: Gene expression by qRT-PCR in mHypoA-59 hypothalamic cell line; format: cell-based, mouse; conditions: 100 μM BAP, 16 hr
# Protocol: as §2, §1
# mHypoE-41 cell line = experiment: Gene expression by qRT-PCR in mHypoE-41 hypothalamic cell line; format: cell-based, mouse; conditions: 16 hr
# Protocol: as §2, §1
# AMPK = AMPK phosphorylation by Western blot in mHypoE-46; format: cell-based, mouse; conditions: 100 μM BAP, 15 min, mHypoE-46
# Protocol: (§3) mHypoE-46 cells were serum starved in 5.5 mM glucose (LG) DMEM for 1 hour prior to treatment with vehicle (0.1% DMSO), 100 µM BAP or H20, […] 5-Aminoimidazole-4-carboxamide ribonucleotide (AICAR) or 0 mM glucose DMEM. Protein was harvested using 1× cell lysis buffer (Cell Signaling Technologies, Inc, CST) containing protease and phosphatase inhibitors. A total of 30 μg protein was separated on a 12% SDS-polyacrylamide gels and transferred onto PVDF membranes. Membranes were blocked in 5% milk dissolved in Tris-buffered saline with Tween 20 (TBS-T) for 1 h and incubated with primary antibody overnight at 4° C. phospho-AMPKα (Thr172; cat. 2532S, CST), and total AMPKα (cat. 2535S, CST); phospho-p70-S6K (Thr389; cat. 9205S, CST) and total p70-S6K (cat. 9202S, CST); insulin receptor ß (cat. 3025S, CST); phospho-AKT (Ser473; cat. 9271S, CST) and total AKT (cat. 9272S, CST); phospho-ERK1/2 (Thr202/Tyr204; cat. 9101, CST) and total ERK (cat. 4695, CST) were diluted 1:1000 in 5% milk in TBS-T. Membranes were washed and incubated with secondary HRP-linked antirabbit antibody (1:7500 in 5% milk in TBS-T, CST) for 1 h, washed, and imaged using the Signal Fire ECL Reagent (CST) on the iBright 1500 Imaging System (Thermofisher). Protein density was quantified using ImageJ or the iBright Imaging System.
# p70-S6K = p70-S6K (Thr389) phosphorylation by Western blot in mHypoE-46; format: cell-based, mouse; conditions: 100 μM BAP for 5, 15, 30, 60 and 90 minutes, serum-starved mHypoE-46
# Protocol: as §3, with “System. […]” for “System.”
compound,measurement,setting,value
"c1ccc(CNc2ncnc3nc[nH]c23)cc1 [BAP, N6-benzylaminopurine]",Pomc expression,[1],significantly induced
same,Agrp expression,[2],no effects
same,Npy expression,[2],no effects
same,Pomc expression,[2],significantly increase
same,effect of PKA inhibition on BAP effect on Npy expression,"mHypoE-44 cell line; 100 μM BAP + 1 μM H89, 16 hr",unable to block the effects of BAP on Npy expression
same,effect of PKA inhibition on BAP effect on Npy expression,"mHypoE-44 cell line; 100 μM BAP + 10 μM PKI, 16 hr",unable to block the effects of BAP on Npy expression
same,Npy mRNA under co-treatment with ATP,"mHypoE-44 cell line; 100 μM BAP + 100 μM ATP, 16 hr",still able to overcome this induction
same,Npy mRNA under co-treatment with UDP (effect of UDP on BAP repression),"mHypoE-44 cell line; 100 μM BAP + 100 μM UDP, 16 hr",block the repression of Npy levels by BAP
same,Npy mRNA under co-treatment with UTP (effect of UTP on BAP repression),"mHypoE-44 cell line; 100 μM BAP + 100 μM UTP, 16 hr, n=2 preliminary",appears to be able to block the repression of Npy levels by BAP
same,Agrp mRNA expression,"mHypoE-44 cell line; 100 μM BAP, 16 hr",increased
same,Npy mRNA expression,"mHypoE-44 cell line; 100 μM BAP, 16 hr",supressed
same,"Npy mRNA expression, time course","mHypoE-44 cell line; 100 μM BAP, at 8 and 16 hr (tested 2, 4, 8, 16, 24 hr)",significantly downregulate
same,BAP dose with strongest Npy decrease,"mHypoE-44 cell line; dose curve, 16 hr",500 µM
same,"Npy expression, dose curve","mHypoE-44 cell line; increasing concentrations of BAP, 16 hr",decreases Npy in a dose dependent manner
same,Npy mRNA expression,mHypoA-59 cell line,no effect
same,"feeding neuropeptide expression (Npy, Agrp) in response to BAP",mHypoA-59 cell line,no changes in feeding neuropeptide expression
same,Npy mRNA under co-treatment with ATP,mHypoE-41 cell line; 100 μM BAP + 100 μM ATP,unable to further induce Npy
same,Agrp mRNA expression,mHypoE-41 cell line; 100 μM BAP,increased
same,Npy mRNA expression,mHypoE-41 cell line; 100 μM BAP,increased
same,BAP dose with strongest Npy increase,"mHypoE-41 cell line; dose curve, attenuated at 500 μM",250 µM
same,"Npy expression, dose curve",mHypoE-41 cell line; increasing concentrations of BAP,increases the expression of Npy
same,AMPK phosphorylation or activation vs vehicle,AMPK,significant decrease
same,p70-S6K (Thr389) phosphorylation (activity),p70-S6K,significantly downregulated

# Reference: patent publication US20260034135A1, “USE OF N6-BENZYLAMINOPURINE AS AN APPETITE SUPPRESSANT” (THE GOVERNING COUNCIL OF THE UNIVERSITY OF TORONTO, priority 2022, published 2026)
